Source: a melting point compilation (Tetko et al.; mined from patent text by program, amines drawn as free bases though some values may be those of a salt)

Work on `CCOC(=O)C1=C(C)NC(CSCCc2ccccc2)=C(C(=O)OCC)C1c1cccc([N+](=O)[O-])c1` (stereo not drawn) yielded a melting point of 73 to 75 °C. In the case of `Cc1c(C(=O)Nc2cc(Cl)c(N3CCC(N4CCOCC4)CC3)c(Cl)c2)cnn1-c1ccc(C(F)(F)F)cc1`, the melting point is reported as 252 to 254 °C. In the case of `CC(C)(C)c1cc(Cl)cc(CO[C@H]2CCCN(Cc3nc(=O)[nH][nH]3)[C@H]2c2ccccc2)c1`, the melting point is reported as 181 to 182 °C. In the case of `COc1ccc2cc3c(Cl)n[nH]c3nc2c1`, the melting point is reported as 296 to 297 °C. Molecule `COc1ccc(Oc2c(C)cc(CC#N)cc2C)cc1C(C)C` has a melting point of 56 to 58 °C. With `O=C(Nc1ccc(C(=O)N2C[C@@H]3CCCN3C(=S)c3ccccc32)cc1)c1ccccc1-c1ccccc1` the melting point was 234 to 236 °C. Work on `O=[N+]([O-])c1cc(Cl)cc2c(Cl)ccnc12` yielded a melting point of 149 to 164 °C. `COc1ccc2cnc(Nc3ccc(N4CCNCC4)c(F)c3)nc2c1C1CCCC1` gave a melting point of 228 to 229 °C. Molecule `CCn1ccc(-c2ccc(C(=O)N3Cc4cccn4Cc4ccccc43)cc2)n1` has a melting point of 180 to 183 °C. In the case of `Cn1nc(C(F)(F)F)c(CS(=O)(=O)C2=NOC(C)(CCl)C2)c1Cl` (stereo not drawn), the melting point is reported as 114 to 116 °C. With `Clc1ccc(C2(CBr)OCC(c3ccc(Cl)cc3Cl)O2)cc1` (stereo not drawn) the melting point was 82.7 °C. Molecule `Cc1c(-c2ccc(C(C)(C)C)cc2)[nH]c2nccnc12` has a melting point of 213 to 214 °C. Molecule `COc1ccc(Br)cc1CC#N` has a melting point of 60.5 to 60.9 °C. `CC(=O)OC1CSC(Oc2cncc(-c3ccncc3Cl)c2)C(OC(C)=O)C1OC(C)=O` (stereo not drawn) showed a melting point of 175 °C. In the case of `CCOC(=O)C(C)O/N=C(\C(=O)Sc1nc2ccccc2s1)c1csc(N)n1` (stereo not drawn), the melting point is reported as 113 °C. Molecule `Cn1c2ccncc2c(=O)n2nccc12` has a melting point of over 300 °C. With `C=CCOn1c(=O)[nH]c2cc(F)c(F)cc2c1=O` the melting point was 220 to 221 °C. Molecule `CSc1ccc(C(=O)c2c(C)cc3n2CCC3C(=O)O)n1C` (stereo not drawn) has a melting point of 182 to 184 °C. Molecule `CC(=O)c1ccc(C#CCOC2CCC3C4CCC5CC(C)(O)CCC5(C)C4CCC23C)cc1` (stereo not drawn) has a melting point of 52 to 55 °C. `NC(=O)c1cc(NCc2ccccc2Cl)c([N+](=O)[O-])cc1[N+](=O)[O-]` gave a melting point of 158 to 161 °C. `O=C(c1c(F)cccc1F)N1CSCN(c2ccc(Cl)cc2)C1=O` showed a melting point of 128 to 130 °C. Molecule `CN(c1cccc2cc(-c3nc(CCC(=O)O)cs3)[nH]c12)S(=O)(=O)c1cccs1` has a melting point of 200 to 201 °C. With `NC(=O)CC[C@@H](CF)NC(=O)OCc1ccccc1` the melting point was 154 to 157 °C. For `CNc1ccccc1C(=O)COC(=O)c1ccccc1`, the melting point was 85 to 87 °C. `Clc1cc(-c2ccccc2)nc(Cl)n1` gave a melting point of 80 to 85 °C. For `O=C(Nc1ccc(-n2nc(C(F)(F)F)cc2C(F)(F)F)cc1)C1(O)CC1`, the melting point was 198 to 200 °C. With `COc1cc2ncc(C#N)c(Nc3cccc(F)c3)c2cc1OC` the melting point was 226 to 230 °C. Work on `CCOC(=O)c1ccc(C#CCOc2cc3c(cc2C=O)C(C)(C)CCC3(C)C)cc1` yielded a melting point of 114 to 115 °C. Molecule `CC(C)c1ccc(N(Cc2cnn(C3CCCC3)c2)C(=O)C2CCCc3c(O)cccc32)cc1` (stereo not drawn) has a melting point of 173 °C. In the case of `COc1ccc2[nH]cc(C=C[N+](=O)[O-])c2c1`, the melting point is reported as 151 to 152 °C. `CC(=O)C1CC=C2C(CCC3=Cc4c(cnn4-c4ccc(F)cc4)CC32C)C1C(C)=O` (stereo not drawn) showed a melting point of 157 to 159 °C. For `Cc1nc(-c2ccc(-c3ccc(C(=O)O)cc3)c(C)c2)no1`, the melting point was 229 to 231 °C. With `CNC(=S)N1CC=C(C(C)(C)C)CC1` the melting point was 76 to 78 °C. Molecule `Cc1nn(C(C)C)cc1C(=O)NC(C#N)c1cccs1` (stereo not drawn) has a melting point of 140 to 142 °C. `COc1ccc2c(c1)c1c3c(c(-c4ccccc4Cl)cc1n2C(C)=O)C(=O)NC3=O` showed a melting point of 277 to 280 °C. With `CCOCc1nc2c(N)nc3cccnc3c2n1CC1(O)CCC1` the melting point was 162 to 163 °C. Work on `C=CC(=O)NCCNC(=O)C=C` yielded a melting point of 150 to 155 °C. In the case of `c1cncc(-c2ccc3nncn3n2)c1`, the melting point is reported as 199 to 200 °C. `COc1ccc(OCC(=O)O)c(C(Nc2ccc(C(=N)N)cc2)C(=O)O)c1` (racemic) showed a melting point of 213 °C. For `C=CCc1cc(C(C)=O)c(O)cc1OCCCCCCCC#N`, the melting point was 46 to 48 °C. In the case of `O=Cc1cc2n(c1)Cc1ccccc1-n1ccnc1-2`, the melting point is reported as 203 to 205 °C. `COc1ccc(CNC(=O)C23CC4CC(CC(C4)C2)C3)cc1` gave a melting point of 91 to 94 °C. Molecule `CC(C)(C)OC(=O)NCc1nc2c(C(F)(F)F)cccc2c(=O)o1` has a melting point of 176 °C. In the case of `CCCCCCCc1[nH]c2cc(C(=O)OC)ccc2c1C=O`, the melting point is reported as 177 to 180 °C. In the case of `CN(CCN1CCN(c2ccc(C(F)(F)F)cc2)CC1)C[C@@]1(C)Cn2cc([N+](=O)[O-])nc2O1`, the melting point is reported as 148 to 150 °C. `N#Cc1ccc(CC2CC3CCC(C2)N3c2ccccc2)c2ccccc12` (stereo not drawn) gave a melting point of 103 to 104 °C. `CC(=O)OC(Cn1cncn1)(CC(Cl)(Cl)Cl)c1ccc(Cl)cc1` (stereo not drawn) gave a melting point of 112 to 114 °C. `O=C(O)c1ccc([N+](=O)[O-])cc1NC(=O)C(F)(F)F` gave a melting point of 198 °C. For `CC(C)N1C(=O)C(N=[N+]=[N-])N=C(c2ccccc2)c2ccccc21` (stereo not drawn), the melting point was 178 to 179 °C. `c1ccc(-c2nsc3nc4ccccc4n23)nc1` gave a melting point of 173 to 174 °C. In the case of `C=CCc1ccc2oc(C(=O)O)cc(=O)c2c1O`, the melting point is reported as 222 to 224 °C. For `COC(=O)c1sc2cc([N+](=O)[O-])ccc2c1N`, the melting point was 169 to 170 °C. Work on `O=C(O)CCC(=O)N(CCCOc1ccc(C(=O)O)cc1)c1ccc(Cl)cc1` yielded a melting point of 155 to 158 °C. For `CCOC(=O)ON=C(N)c1cccc(Oc2ccc3c(c2)S(=O)(=O)N=C2CCCN23)c1`, the melting point was 101 to 105 °C. Work on `CN1CCC(C2Nc3cc(Br)ccc3N3CCc4cccc2c43)CC1` (stereo not drawn) yielded a melting point of 206 to 208 °C. Work on `COc1ccc(Nc2ccnc3nc(C)c(OC(=O)COC(C)=O)cc23)cc1` yielded a melting point of 213 to 216 °C. In the case of `O=C(O)CCCC1CCCNC1` (stereo not drawn), the melting point is reported as 208 to 210 °C. In the case of `CS(=O)(=O)OCC1(c2ccc(Cl)cc2)CCC1`, the melting point is reported as 66 to 70 °C. In the case of `Cc1cc(C(O)(C(F)(F)F)C(F)(F)F)cc(C)c1S`, the melting point is reported as 62 to 64 °C. For `C[C@@H](n1cnn(-c2ccc(OCC(F)(F)C(F)(F)F)cc2)c1=O)[C@@]1(c2ccc(F)cc2F)CO1`, the melting point was 128 to 129 °C. In the case of `CCOc1cccnc1CSCCNC(=C[N+](=O)[O-])NC`, the melting point is reported as 130 to 131 °C. `Cc1cccc(COc2cccnc2N)c1F` gave a melting point of 115 to 118 °C. Work on `O=S(=O)(Nc1ccccc1NCCOc1ccc(Cl)cc1)c1ccc(Cl)cc1` yielded a melting point of 158 °C. `COc1ccc(C(=O)Nc2ccc(F)cc2)cc1NC(=S)Nc1cc(Cl)cc(Cl)c1` gave a melting point of 175 to 178 °C. Work on `COC(=O)CCCCCCc1ncsc1C(=O)O` yielded a melting point of 113 to 114 °C. Work on `c1ccc(-c2nc3ccc(N4CCC(N5CCCC5)CC4)nn3c2-c2ccncc2)cc1` yielded a melting point of 165 to 166 °C. With `O=C(O)c1c(O)cccc1Cc1cccs1` the melting point was 155 to 158 °C. Molecule `COC(=O)c1ccc(-c2nc(-c3cccc(Cl)c3)cs2)cc1` has a melting point of 150 to 151 °C. `CCCCOc1ccc(-c2ccc([C@@]3(CC(=O)O)CCCCS3(=O)=O)s2)cc1` gave a melting point of 179 to 180 °C. `CSc1ccc(C=C2C(C)=C(CC(=O)O)c3cc(F)c(F)cc32)cc1` gave a melting point of 181 to 182 °C. Work on `Cn1cnnc1COc1nn2c(-c3ccccc3F)nnc2cc1C1CCC1` yielded a melting point of 228 °C. Work on `COc1ccccc1OCCNCCCc1c[nH]c2ccc(F)cc12` yielded a melting point of 125 to 126 °C. `Cc1nc2c3c(c(C(=O)N(C)C)cc2[nH]1)CC[C@@H](c1ccccc1C)O3` gave a melting point of 219 °C.
